# Measurements published in patent US9187435B2, “Bridged Spiro[2.4]heptane ester derivatives” (Actelion Pharmaceuticals Ltd., priority 2010, dated 2015).
# Counter-ions that a name gives are not always drawn.
# Biological target: T1, human ALX receptor (Homo sapiens, UniProt P25090)
# T1 construct: expressed in transfected cells; host or cells: HEK293 (HEK293-hALXR-Gα16)
# T1 sequence (P25090 1-351): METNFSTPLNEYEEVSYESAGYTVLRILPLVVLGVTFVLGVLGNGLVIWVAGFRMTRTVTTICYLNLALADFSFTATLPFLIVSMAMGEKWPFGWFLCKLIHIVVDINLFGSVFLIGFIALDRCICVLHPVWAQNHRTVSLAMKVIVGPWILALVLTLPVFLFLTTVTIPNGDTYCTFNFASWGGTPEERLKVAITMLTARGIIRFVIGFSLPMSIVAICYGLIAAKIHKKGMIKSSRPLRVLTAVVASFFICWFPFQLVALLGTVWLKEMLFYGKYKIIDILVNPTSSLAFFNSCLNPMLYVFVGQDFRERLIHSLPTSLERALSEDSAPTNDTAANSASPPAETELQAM
# Assay: Intracellular calcium measurements (FLIPR) in HEK293-hALXR-Gα16 cells, agonistic activity
# Type: cell-based
# Settings: values normalized to WKYMVm 10 nM
# Method: The ALX receptor and FPRL2 agonistic activities of the compounds of formula (I) are determined in accordance with the following experimental method.
# Intracellular Calcium Measurements:
# Cells expressing recombinant human ALX receptor and the G-protein Gα16 (HEK293-hALXR-Gα16) were grown to 80% confluency in Growing Medium (GM). Cells were detached from culture dishes with a cell dissociation buffer (Invitrogen, 13151-014), and collected by centrifugation at 1,000 rpm at rt for 5 min in Assay Buffer (AB) (equal parts of Hank's BSS (Gibco, 14065-049) and DMEM without Phenol Red (Gibco, 11880-028)). After 60 min incubation at 37° C. under 5% CO2 in AB supplemented with 1 μM Fluo-4 (AM) (Invitrogen, F14202), and 20 mM HEPES (Gibco, 15630-056), the cells were washed and resuspended in AB. They were then seeded onto 384-well FLIPR assay plates (Greiner, 781091) at 50,000 cells in 70 μl per well and sedimented by centrifugation at 1,000 rpm for 1 min. Stock solutions of test compounds were made up at a concentration of 10 mM in DMSO, and serially diluted in AB to concentrations required for activation dose response curves. WKYMVm (Phoenix Peptides) was used as a reference agonist. FLIPR384 or FLIPR Tetra instruments (Molecular Devices) were operated according to the manufacturer's standard instructions, adding 4 μl of test compound dissolved at 10 mM in DMSO and diluted prior to the experiment in assay buffer to obtain the desired final concentration. Changes in fluorescence were monitored before and after the addition of test compounds at lex=488 nm and lem=540 nm. Emission peak values above base level after compounds addition were exported after base line subtraction. Values were normalized to high-level control (WKYMVm compound, 10 nM final concentration) after subtraction of the base line value (AB addition).
structure (smiles),measurement,value
"O=C(OC1CCCNC1)[C@H]1[C@H](C(=O)Nc2ccc(Br)nc2)[C@@H]2CC[C@H]1C21CC1 (stereo partly drawn) [Example 9, (1S,2R,3R,4R)-[Piperidin-3-yl 2-((6-bromopyridin-3-yl)carbamoyl)spiro[bicyclo[2.2.1]heptane-7,1′-cyclopropane]-3-carboxylate]hydrochloride]",EC50,2.5 nM
"O=C(OCC1CCCNC1)[C@H]1[C@H](C(=O)Nc2ccc(Br)nc2)[C@@H]2CC[C@H]1C21CC1 (stereo partly drawn) [Example 12, (1S,2R,3R,4R)-[Piperidin-3-ylmethyl 2-((6-bromopyridin-3-yl)carbamoyl)spiro[bicyclo[2.2.1]heptane-7,1′-cyclopropane]-3-carboxylate]hydrochloride]",EC50,15.5 nM
"Cc1cc(CNC(=O)[C@H]2[C@H](C(=O)OCC3CCCNC3)[C@H]3CC[C@@H]2C32CC2)no1 (stereo partly drawn) [Example 18, (1S,2R,3R,4R)-[Piperidin-3-ylmethyl 2-(((5-methylisoxazol-3-yl)methyl)carbamoyl)spiro[bicyclo[2.2.1]heptane-7,1′-cyclopropane]-3-carboxylate]hydrochloride]",EC50,87.7 nM
"O=C(OCC1CCNCC1)[C@H]1[C@H](C(=O)Nc2ccc(Br)nc2)[C@@H]2CC[C@H]1C21CC1 [Example 41, (1S,2R,3R,4R)-[(Piperidin-4-yl)methyl 2-((6-bromopyridin-3-yl)carbamoyl)spiro[bicyclo[2.2.1]heptane-7,1′-cyclopropane]-3-carboxylate]hydrochloride]",EC50,5.2 nM
"O=C(OC1CNC1)[C@H]1[C@H](C(=O)Nc2ccc(Br)nc2)[C@@H]2CC[C@H]1C21CC1 [Example 24, (1S,2R,3R,4R)-[Azetidin-3-yl 2-((6-bromopyridin-3-yl)carbamoyl)spiro[bicyclo[2.2.1]heptane-7,1′-cyclopropane]-3-carboxylate]hydrochloride]",EC50,289 nM
"Cc1cc(CNC(=O)[C@H]2[C@H](C(=O)OCC3CCNCC3)[C@H]3CC[C@@H]2C32CC2)on1 [Example 52, (1S,2R,3R,4R)-[(Piperidin-4-yl)methyl 2-(((3-methylisoxazol-5-yl)methyl)carbamoyl)spiro[bicyclo[2.2.1]heptane-7,1′-cyclopropane]-3-carboxylate]]",EC50,11.5 nM
"O=C(OC1CCNCC1(F)F)[C@H]1[C@H](C(=O)Nc2ccc(Br)nc2)[C@@H]2CC[C@H]1C21CC1 (stereo partly drawn) [Example 56, (1S,2R,3R,4R)-[(3,3-Difluoro-piperidin-4-yl) 2-((6-bromopyridin-3-yl)carbamoyl)spiro[bicyclo[2.2.1]heptane-7,1′-cyclopropane]-3-carboxylate]]",EC50,28.2 nM
"O=C(OCCCC(F)(F)CN1CCCC1)[C@H]1[C@H](C(=O)Nc2ccc(Br)nc2)[C@@H]2CC[C@H]1C21CC1 [Example 78, (1S,2R,3R,4R)-[(4,4-Difluoro-5-(pyrrolidin-1-yl))pent-1-yl 2-((6-bromopyridin-3-yl)carbamoyl)spiro[bicyclo[2.2.1]heptane-7,1′-cyclopropane]-3-carboxylate]]",EC50,3740 nM
"Cc1cc(CNC(=O)[C@H]2[C@H](C(=O)OC3CCN(C)C3)[C@H]3CC[C@@H]2C32CC2)no1 (stereo partly drawn) [Example 15, (1S,2R,3R,4R)-[1-Methylpyrrolidin-3-yl 2-(((5-methylisoxazol-3-yl)methyl)carbamoyl)spiro[bicyclo[2.2.1]heptane-7,1′-cyclopropane]-3-carboxylate]]",EC50,34.6 nM
"CN1CCCCC1COC(=O)[C@H]1[C@H](C(=O)Nc2ccc(Br)nc2)[C@@H]2CC[C@H]1C21CC1 (stereo partly drawn) [Example 22, (1S,2R,3R,4R)-[1-Methyl-piperidin-2-ylmethyl 2-((6-bromopyridin-3-yl)carbamoyl)spiro[bicyclo[2.2.1]heptane-7,1′-cyclopropane]-3-carboxylate]]",EC50,217 nM
"O=C(OCCN1CCNCC1)[C@H]1[C@H](C(=O)NCc2ccc(Br)cc2F)[C@@H]2CC[C@H]1C21CC1 [Example 71, (1S,2R,3R,4R)-[2-(piperazin-1-yl)ethyl 2-((4-bromo-2-fluorobenzyl)carbamoyl)spiro[bicyclo[2.2.1]heptane-7,1′-cyclopropane]-3-carboxylate]dihydrochloride]",EC50,162 nM
"O=C(OCC1CCNCC1)[C@H]1[C@H](C(=O)NCc2ccc(Br)cc2F)[C@@H]2CC[C@H]1C21CC1 [Example 4, (1S,2R,3R,4R)-[Piperidin-4-ylmethyl 2-((4-bromo-2-fluorobenzyl)carbamoyl)spiro[bicyclo[2.2.1]heptane-7,1′-cyclopropane]-3-carboxylate]hydrochloride]",EC50,52.1 nM
"O=C(OCCCCN1CC[C@H](F)C1)[C@H]1[C@H](C(=O)Nc2ccc(Br)nc2)[C@@H]2CC[C@H]1C21CC1 [Example 53, (1S,2R,3R,4R)-[(S)-4-(3-Fluoropyrrolidin-1-yl)butyl 2-((6-bromopyridin-3-yl)carbamoyl)spiro[bicyclo[2.2.1]heptane-7,1′-cyclopropane]-3-carboxylate]]",EC50,11.9 nM
"O=C(OCCOCCN1CC[C@H](F)C1)[C@H]1[C@H](C(=O)Nc2ccc(Br)nc2)[C@@H]2CC[C@H]1C21CC1 [Example 48, (1S,2R,3R,4R)-[(S)-2-(2-(3-Fluoropyrrolidin-1-yl)ethoxy)ethyl 2-((6-bromopyridin-3-yl)carbamoyl)spiro[bicyclo[2.2.1]heptane-7,1′-cyclopropane]-3-carboxylate]]",EC50,9.9 nM
"Cc1cc(CNC(=O)[C@H]2[C@H](C(=O)OCCC3CCNCC3(F)F)[C@H]3CC[C@@H]2C32CC2)on1 (stereo partly drawn) [Example 66, (1S,2R,3R,4R)-[(3,3-Difluoro-piperidin-4-yl)ethyl 2-(((3-methylisoxazol-5-yl)methyl)carbamoyl)spiro[bicyclo[2.2.1]heptane-7,1′-cyclopropane]-3-carboxylate]]",EC50,113 nM
"Cc1cc(CNC(=O)[C@H]2[C@H](C(=O)OCCCN(C)C)[C@H]3CC[C@@H]2C32CC2)no1 [Example 25, (1S,2R,3R,4R)-[1-Dimethylaminoprop-3-yl 2-(((5-methylisoxazol-3-yl)methyl)carbamoyl)spiro[bicyclo[2.2.1]heptane-7,1′-cyclopropane]-3-carboxylate]]",EC50,330 nM
"Cc1cc(CNC(=O)[C@H]2[C@H](C(=O)O[C@@H]3CCNC[C@H]3F)[C@H]3CC[C@@H]2C32CC2)on1 (relative stereo) [Example 46, (1S,2R,3R,4R)-[(trans-3-Fluoro-piperidin-4-yl) 2-(((3-methylisoxazol-5-yl)methyl)carbamoyl)spiro[bicyclo[2.2.1]heptane-7,1′-cyclopropane]-3-carboxylate]]",EC50,9.7 nM
"O=C(OCCC1CCNCC1)[C@H]1[C@H](C(=O)Nc2ccc(Br)nc2)[C@@H]2CC[C@H]1C21CC1 [Example 36, (1S,2R,3R,4R)-[2-(Piperidin-4-yl)ethyl 2-((6-bromopyridin-3-yl)carbamoyl)spiro[bicyclo[2.2.1]heptane-7,1′-cyclopropane]-3-carboxylate]hydrochloride]",EC50,0.4 nM
"O=C(OCCN1CCNCC1)[C@H]1[C@H](C(=O)Nc2ccc(Br)nc2)[C@@H]2CC[C@H]1C21CC1 [Example 37, (1S,2R,3R,4R)-[2-(piperazin-1-yl)ethyl 2-((6-bromopyridin-3-yl)carbamoyl)spiro[bicyclo[2.2.1]heptane-7,1′-cyclopropane]-3-carboxylate]dihydrochloride]",EC50,1.4 nM
"O=C(OCCC1CCNCC1(F)F)[C@H]1[C@H](C(=O)Nc2ccc(Br)nc2)[C@@H]2CC[C@H]1C21CC1 (stereo partly drawn) [Example 73, (1S,2R,3R,4R)-[2-(3,3-Difluoro-piperidin-4-yl)ethyl 2-((6-bromopyridin-3-yl)carbamoyl)spiro[bicyclo[2.2.1]heptane-7,1′-cyclopropane]-3-carboxylate]]",EC50,270 nM
"CC(CC(F)(F)CN1CCCC1)OC(=O)[C@H]1[C@H](C(=O)Nc2ccc(Br)nc2)[C@@H]2CC[C@H]1C21CC1 (stereo partly drawn) [Example 77, (1S,2R,3R,4R)-[(4,4-Difluoro-5-(pyrrolidin-1-yl))pent-2-yl 2-((6-bromopyridin-3-yl)carbamoyl)spiro[bicyclo[2.2.1]heptane-7,1′-cyclopropane]-3-carboxylate]]",EC50,1750 nM
"O=C(OCC1(F)CCNCC1)[C@H]1[C@H](C(=O)Nc2ccc(Br)nc2)[C@@H]2CC[C@H]1C21CC1 [Example 55, (1S,2R,3R,4R)-[(4-Fluoro-piperidin-4-yl)methyl 2-((6-bromopyridin-3-yl)carbamoyl)spiro[bicyclo[2.2.1]heptane-7,1′-cyclopropane]-3-carboxylate]]",EC50,18.5 nM
